From patent US10077261B2, “Imidazolin-5-one derivative useful as FASN inhibitors for the treatment of cancer” (Janssen Pharmaceutica NV, priority 2012, dated 2018) come the findings set out here.

pIC50: −log10 of the molar value.

The target of assay [1] is T1, hFASN enzyme (full length) (Homo sapiens, UniProt P49327).
T1 construct: 10 μL hFASN enzyme (full length, 300 ng, purified in house); made in house
Put plainly: Fatty Acid Synthase (FASN) inhibition scintillation proximity assay. To be noted: for inhibition at 10 µM: read-out: Human FASN % inhibition @ 10 μM, 10 μM test compound; for IC50: read-out: Human FASN pIC50 (converted). It counts as biochemical. The gist of the method: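 Purified full-length hFASN (300 ng) converts ^3H-acetyl-CoA plus malonyl-CoA to ^3H-palmitate in 100 mM KH2PO4 pH 7.5, 1 mM DTT; compounds tested at 0.01–30 μM. Product captured on streptavidin imaging beads and read by LEADseeker at 610 nm after ≥24 h; 4-parameter logistic fit versus controls.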
In general terms: Scintillation proximity formats need no separation of bound from free tracer.

Assay [2] deals with A2780 ovarian cells. Put plainly: A2780 ovarian cell proliferation assay in lipid reduced medium, with palmitate (MTT). In kind it is cell-based. To be noted: Homo sapiens, A2780, 96 h; read-out: pIC50 A2780 Ovarian Cell, With Palmitate (converted). In a few lines: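 Seeded cells were switched next day to lipid-reduced serum, exposed to compound and 25 μM palmitate complexed with fatty-acid-free BSA, and incubated 96 h. Proliferation was then determined by MTT absorbance at 544 nm, with a best-fit curve of signal against concentration.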

In assay [3] the test system is A2780 ovarian cells. Put plainly: A2780 ovarian cell proliferation assay in lipid reduced medium, without palmitate (MTT). In kind it is cell-based. To be noted: Homo sapiens, A2780, 96 h; read-out: pIC50 A2780 Ovarian Cell, Without Palmitate (converted).
In assay [4] the test system is LNCaP-Vancouver prostate cells. Put plainly: In vitro LNCaP Vancouver prostate cell proliferation assay in lipid reduced medium. In kind it is cell-based. To be noted: read-out: pIC50 LNCaP_Vancouver prostate cell (converted). As for the experimental part:
LNCaP-Vancouver prostate cells were obtained from the Vancouver Prostate Cancer Centre. Cells were maintained in RPMI-1640, 10% Fetal Calf Serum (FCS, Hyclone), 2 mM glutamine and 50 μg/ml Gentamicin.
For the proliferation experiment 1500 LNCaP-Vancouver cells per well were seeded in a 384-well black with clear bottom plate (costar 3712BC) in 40 μl RPMI-1640, 10% Lipid reduced serum (LRS, Hyclone), 50 μg/ml Gentamicin and 2 mM Glutamine and incubated at 37° C., 5% CO2. The next day 10 μl of test compound/DMSO diluted in medium was added (3E-5M, 1E-5M, 3E-6M, 1E-6M, 3E-7M, 1E-7M, 3E-8M, 1E-8M final concentration). Compounds were tested in duplicate. After 96 h incubation at 37° C., 5% CO2 25 μl ATP-glow mix was added. The plate was incubated for 30 min at 37° C. and luminescence was measured with the Envision.
Analysis: Determination of pIC50 Values
pIC50 values were calculated as follows.
where mLC and mHC are the means of the low control wells and high control wells on the plate, after manual exclusion of outliers. The relation between the % Controlmin values and concentration was fitted to a 4-parameter logistic curve using a non-linear least squares regression method to determine the pIC50 value. Outlying data points were excluded manually to get a correct fit. The pIC50 corresponds to −log 10(IC50), if the IC50 is expressed in molar units (http://www.ncbi.nlm.nih.gov/books/NBK91994). The IC50 parameter was always determined by non-linear regression, but one or more of the other parameters may have been held fixed on a relevant input value, such as 0 for the bottom values.
For dose response curves with FASN inhibitors in LNCaP-Vancouver or PC-3M-Luc-C6 cells the curves bottom out around 30 to 40% of the control value. A standard fit PL2, forcing the lower bound to this level was used.
Representative compounds of the present invention were tested according to the procedure as described in Biological Example 4a and 4b above, with results as listed in Table 9, below.

Assay [5] deals with Fatty Acid Synthase Keto-reductase Domain (FASN KR) (Homo sapiens, UniProt P49327). Put plainly: Fatty Acid Synthase keto-reductase domain (FASN KR) inhibition, NADPH oxidation at 340 nm.
Chain of Fatty Acid Synthase Keto-reductase Domain (FASN KR) (P49327 whole entry, the tested form may be a part): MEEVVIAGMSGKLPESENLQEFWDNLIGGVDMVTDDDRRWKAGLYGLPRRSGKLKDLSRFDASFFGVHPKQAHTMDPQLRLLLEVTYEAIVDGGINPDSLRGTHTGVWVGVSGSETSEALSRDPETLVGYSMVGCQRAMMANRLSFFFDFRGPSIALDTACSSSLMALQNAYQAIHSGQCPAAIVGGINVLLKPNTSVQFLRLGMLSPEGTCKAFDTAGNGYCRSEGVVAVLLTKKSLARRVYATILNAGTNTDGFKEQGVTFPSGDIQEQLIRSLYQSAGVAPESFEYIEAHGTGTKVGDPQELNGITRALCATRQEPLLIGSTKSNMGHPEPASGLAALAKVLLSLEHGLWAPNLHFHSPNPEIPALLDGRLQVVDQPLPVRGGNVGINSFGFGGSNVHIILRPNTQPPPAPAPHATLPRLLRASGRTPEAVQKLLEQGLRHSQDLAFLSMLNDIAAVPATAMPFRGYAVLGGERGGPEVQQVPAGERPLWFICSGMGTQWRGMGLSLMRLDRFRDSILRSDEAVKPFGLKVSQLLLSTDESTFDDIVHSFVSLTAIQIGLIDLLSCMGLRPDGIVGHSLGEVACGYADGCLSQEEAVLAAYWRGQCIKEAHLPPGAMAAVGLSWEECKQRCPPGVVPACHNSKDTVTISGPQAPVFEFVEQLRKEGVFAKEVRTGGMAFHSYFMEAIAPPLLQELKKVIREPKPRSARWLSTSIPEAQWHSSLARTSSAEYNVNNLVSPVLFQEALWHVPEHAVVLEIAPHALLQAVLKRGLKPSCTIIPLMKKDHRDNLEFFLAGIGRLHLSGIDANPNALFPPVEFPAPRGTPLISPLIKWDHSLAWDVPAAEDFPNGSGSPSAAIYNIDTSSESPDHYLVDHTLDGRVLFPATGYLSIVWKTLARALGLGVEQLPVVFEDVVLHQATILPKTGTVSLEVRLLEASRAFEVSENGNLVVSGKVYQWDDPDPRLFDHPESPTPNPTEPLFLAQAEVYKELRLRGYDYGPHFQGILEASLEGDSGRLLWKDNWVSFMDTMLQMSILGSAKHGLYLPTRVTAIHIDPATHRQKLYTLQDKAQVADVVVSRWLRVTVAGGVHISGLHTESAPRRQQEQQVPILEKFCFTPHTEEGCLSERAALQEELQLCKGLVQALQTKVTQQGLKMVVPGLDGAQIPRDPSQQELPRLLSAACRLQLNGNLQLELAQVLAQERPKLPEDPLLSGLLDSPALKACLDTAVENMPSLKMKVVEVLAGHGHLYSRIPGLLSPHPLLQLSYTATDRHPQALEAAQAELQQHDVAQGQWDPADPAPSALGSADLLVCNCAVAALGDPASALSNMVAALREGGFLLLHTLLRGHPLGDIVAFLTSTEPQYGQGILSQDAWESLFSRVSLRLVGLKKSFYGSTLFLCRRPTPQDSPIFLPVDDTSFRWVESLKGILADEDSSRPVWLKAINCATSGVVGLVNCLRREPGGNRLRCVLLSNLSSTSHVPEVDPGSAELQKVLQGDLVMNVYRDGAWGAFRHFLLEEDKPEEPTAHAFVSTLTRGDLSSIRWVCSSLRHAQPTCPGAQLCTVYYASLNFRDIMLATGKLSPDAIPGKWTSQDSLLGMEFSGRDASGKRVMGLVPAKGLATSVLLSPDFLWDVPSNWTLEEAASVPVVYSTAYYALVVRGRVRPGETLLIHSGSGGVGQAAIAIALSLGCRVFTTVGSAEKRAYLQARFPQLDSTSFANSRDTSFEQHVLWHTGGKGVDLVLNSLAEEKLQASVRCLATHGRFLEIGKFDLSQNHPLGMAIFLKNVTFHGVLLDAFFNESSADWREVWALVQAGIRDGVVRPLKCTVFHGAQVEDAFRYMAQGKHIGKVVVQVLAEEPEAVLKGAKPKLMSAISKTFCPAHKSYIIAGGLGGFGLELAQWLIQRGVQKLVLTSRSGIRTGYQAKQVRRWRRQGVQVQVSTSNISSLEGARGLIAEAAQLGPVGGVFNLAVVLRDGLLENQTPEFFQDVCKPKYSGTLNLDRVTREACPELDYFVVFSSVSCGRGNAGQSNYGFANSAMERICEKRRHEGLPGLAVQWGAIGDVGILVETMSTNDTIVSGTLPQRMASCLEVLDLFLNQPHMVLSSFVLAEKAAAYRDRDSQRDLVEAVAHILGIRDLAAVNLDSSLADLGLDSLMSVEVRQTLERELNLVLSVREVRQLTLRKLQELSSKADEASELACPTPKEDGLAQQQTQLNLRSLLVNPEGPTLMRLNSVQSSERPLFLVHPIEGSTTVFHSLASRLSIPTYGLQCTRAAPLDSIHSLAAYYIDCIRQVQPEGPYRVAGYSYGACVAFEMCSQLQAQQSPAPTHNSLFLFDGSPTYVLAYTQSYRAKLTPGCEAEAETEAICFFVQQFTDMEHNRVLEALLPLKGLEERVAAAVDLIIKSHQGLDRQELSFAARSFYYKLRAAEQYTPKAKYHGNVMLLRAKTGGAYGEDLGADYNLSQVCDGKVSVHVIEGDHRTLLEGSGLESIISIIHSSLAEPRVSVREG
Description: After 20 minutes incubation at room temperature the plate was measured again (T2).
The decrease in absorbance was calculated as (Absorbance before incubation T1)−(Absorbance following incubation T2).
A plot of Controlmin versus test compound concentration was fitted to a 4-parameter logistic curve using a non-linear least squares regression method.

T1 sequence (P49327 whole entry): as the sequence (P49327 whole entry, the tested form may be a part) above

What is called inhibition is the relative decrease from the control value, in per cent. One may read the pIC50 as the IC50 on a negative log10 scale, so that one unit is a factor of ten. Take `CCC(=O)N1CC(CN2C(=O)C3(CC3)N=C2c2ccc(-c3ccc4c(cnn4C)c3)cc2C)C1` [compound 471, 5-[2-Methyl-4-(1-methyl-1H-indazol-5-yl)phenyl]-6-[(1-propanoylazetidin-3-yl)methyl]-4,6-diazaspiro[2.4]hept-4-en-7-one]: the inhibition at 10 µM in assay [1] was 99%. For the same compound, the IC50 in assay [1] is 182 nM; in assay [2], more than 10000 nM; in assay [3] it was 417 nM; in assay [4], 1290 nM. The compound also had a pIC50 in assay [5] of 6.48.

Regarding `Cc1cc(-c2ccc3c(cnn3C)c2)ccc1C1=NC2(CC2)C(=O)N1CC1CN(C(=O)C(C)C)C1` [compound 473, 5-[2-Methyl-4-(1-methyl-1H-indazol-5-yl)phenyl]-6-{[1-(2-methylpropanoyl)azetidin-3-yl]methyl}-4,6-diazaspiro[2.4]hept-4-en-7-one], the inhibition at 10 µM in assay [1] amounted to 95%. For the same compound, the IC50 was 269 nM in assay [1], more than 10000 nM in assay [2], approximately 275 nM in assay [3] and 2190 nM in assay [4]. Also, in assay [5], the pIC50 was 6.28.

As to `Cc1cc(C2=NC3(CC3)C(=O)N2C[C@@H]2CCN(C(=O)C3CC3)C2)ccc1-c1ccc2oc(C#N)cc2c1` [compound 476, 5-[4-(6-{[(3R)-1-(Cyclopropylcarbonyl)pyrrolidin-3-yl]methyl}-7-oxo-4,6-diazaspiro[2.4]hept-4-en-5-yl)-2-methylphenyl]-1-benzofuran-2-carbonitrile], in assay [1], the inhibition at 10 µM is 90%. The IC50 in assay [1] is 263 nM; in assay [2], more than 10000 nM; in assay [3] it was approximately 2040 nM; in assay [4], 3720 nM. The compound also had a pIC50 in assay [5] of 6.21.

As for `Cc1cc(-c2ccc3c(cnn3C)c2)ccc1C1=NC2(CC2)C(=O)N1CC1CN(C(=O)C2(CO)CC2)C1` [compound 480, 6-[(1-{[1-(Hydroxymethyl)cyclopropyl]carbonyl}azetidin-3-yl)methyl]-5-[2-methyl-4-(1-methyl-1H-indazol-5-yl)phenyl]-4,6-diazaspiro[2.4]hept-4-en-7-one], in assay [1], the inhibition at 10 µM was 97%. In addition, the IC50 in assay [1] was 155 nM; in assay [2], more than 10000 nM; in assay [3], approximately 257 nM; in assay [4], 1150 nM. In addition, the pIC50 in assay [5] is 6.28.

`Cn1ncc2cc(-c3ccc(C4=NC5(CC5)C(=O)N4C[C@@H]4CCN(C(=O)C5COC5)C4)cc3)ccc21` [compound 490, 5-[4-(1-Methyl-1H-indazol-5-yl)phenyl]-6-{[(3R)-1-(oxetan-3-ylcarbonyl)pyrrolidin-3-yl]methyl}-4,6-diazaspiro[2.4]hept-4-en-7-one]: in assay [1], the inhibition at 10 µM came to 81%. Moreover, the IC50 in assay [1] was 331 nM; in assay [2], more than 10000 nM; in assay [3] it was 93.3 nM; in assay [4] it was 1050 nM. In addition, the pIC50 in assay [5] is 6.44.

In the case of `O=C1CCc2cc(-c3ccc(C4=NC5(CC5)C(=O)N4C[C@@H]4CCN(C(=O)C5CC5)C4)cc3)ccc2N1` [compound 512, 6-[4-(6-{[(3R)-1-(Cyclopropylcarbonyl)pyrrolidin-3-yl]methyl}-7-oxo-4,6-diazaspiro[2.4]hept-4-en-5-yl)phenyl]-3,4-dihydroquinolin-2(1H)-one], the inhibition at 10 µM in assay [1] came out at 87%. Moreover, the IC50 in assay [1] was 676 nM; in assay [2], more than 10000 nM; in assay [3], 1000 nM; in assay [4], 3980 nM. This compound showed a pIC50 in assay [5] of 5.51.

As for `Cn1nc(CO)c2cc(-c3ccc(C4=NC5(CC5)C(=O)N4CC4CN(C(=O)C5CC5)C4)cc3)ccc21` [compound 530, 6-{[1-(Cyclopropylcarbonyl)azetidin-3-yl]methyl}-5-{4-[3-(hydroxymethyl)-1-methyl-1H-indazol-5-yl]phenyl}-4,6-diazaspiro[2.4]hept-4-en-7-one], the inhibition at 10 µM in assay [1] came out at 97%. Also, the IC50 is 263 nM in assay [1], more than 10000 nM in assay [2], 776 nM in assay [3] and 5130 nM in assay [4]. Also, the pIC50 in assay [5] was 5.53.

Turning to `O=C(C1CC1)N1CC(CN2C(=O)C3(CC3)N=C2c2ccc(-c3ccc4cncnc4c3)cc2)C1` [compound 543, 6-{[1-(Cyclopropylcarbonyl)azetidin-3-yl]methyl}-5-(4-quinazolin-7-ylphenyl)-4,6-diazaspiro[2.4]hept-4-en-7-one], the inhibition at 10 µM in assay [1] came out at 97%. For the same compound, the IC50 is 145 nM in assay [1], more than 10000 nM in assay [2], 141 nM in assay [3] and 2000 nM in assay [4]. For the same compound, in assay [5], the pIC50 is 6.32.

As to `Cn1ccc(-c2ccc(-c3ccc(C4=NC5(CC5)C(=O)N4CC4CN(C(=O)C5CC5)C4)c(F)c3)cc2)n1` [compound 547, 6-{[1-(Cyclopropylcarbonyl)azetidin-3-yl]methyl}-5-[3-fluoro-4′-(1-methyl-1H-pyrazol-3-yl)biphenyl-4-yl]-4,6-diazaspiro[2.4]hept-4-en-7-one], the inhibition at 10 µM in assay [1] worked out at 98%. The IC50 in assay [1] is 178 nM; in assay [2], 5890 nM; in assay [3] it was approximately 174 nM; in assay [4] it was 1000 nM. The same compound showed a pIC50 in assay [5] of 6.17.

In the case of `Cc1cc2cc(-c3ccc(C4=NC5(CC5)C(=O)N4CC4CN(C(=O)C5CC5)C4)c(F)c3)ccc2s1` [compound 548, 6-{[1-(Cyclopropylcarbonyl)azetidin-3-yl]methyl}-5-[2-fluoro-4-(2-methyl-1-benzothiophen-5-yl)phenyl]-4,6-diazaspiro[2.4]hept-4-en-7-one], the inhibition at 10 µM in assay [1] came out at 88%. Also, the IC50 was 162 nM in assay [1], 6170 nM in assay [2], approximately 295 nM in assay [3] and 1100 nM in assay [4]. In assay [5], this compound showed a pIC50 of 6.78.

Turning to `COc1nn(C)c2ccc(-c3ccc(C4=NC5(CC5)C(=O)N4C[C@@H]4CCN(C(=O)C5CC5)C4)cc3)cc12` [compound 557, 6-{[(3R)-1-(Cyclopropylcarbonyl)pyrrolidin-3-yl]methyl}-5-[4-(3-methoxy-1-methyl-1H-indazol-5-yl)phenyl]-4,6-diazaspiro[2.4]hept-4-en-7-one], the inhibition at 10 µM in assay [1] stood at 97%. The IC50 was 372 nM in assay [1], 4790 nM in assay [2], 200 nM in assay [3] and 1380 nM in assay [4]. Further, the pIC50 in assay [5] was 6.37.

For `Cc1cc(-c2ccc(C#N)cc2F)ccc1C1=NC2(CC2)C(=O)N1CC1CN(C(=O)C2(C)CC2)C1` [compound 580], the inhibition at 10 µM in assay [1] amounted to 108%. The IC50 in assay [1] was 123 nM; in assay [2] it was more than 10000 nM; in assay [3], 56.2 nM; in assay [4] it was 759 nM. Further, in assay [5], the pIC50 was 6.22.

For the compound `Cc1cc(-c2cccc(NC(=O)C3CC3)c2)ccc1C1=NC2(CC2)C(=O)N1C[C@@H]1CCN(C(=O)C2CC2)C1` [compound 614, N-[4′-(6-{[(3R)-1-(Cyclopropylcarbonyl)pyrrolidin-3-yl]methyl}-7-oxo-4,6-diazaspiro[2.4]hept-4-en-5-yl)-3′-methylbiphenyl-3-yl]cyclopropanecarboxamide], in assay [1], the inhibition at 10 µM stood at 102%. The IC50 in assay [1] was 151 nM; in assay [2], more than 10000 nM; in assay [3] it was 170 nM; in assay [4] it was 1350 nM. This compound also gave a pIC50 in assay [5] of 6.51.

For the compound `Cc1cc(-c2cccc(SC3CC3)c2)ccc1C1=NC2(CC2)C(=O)N1C[C@@H]1CCN(C(=O)C2CC2)C1` [compound 642, 6-{[(3R)-1-(Cyclopropylcarbonyl)pyrrolidin-3-yl]methyl}-5-[3′-(cyclopropylsulfanyl)-3-methylbiphenyl-4-yl]-4,6-diazaspiro[2.4]hept-4-en-7-one], the inhibition at 10 µM in assay [1] is 99%. Also, the IC50 in assay [1] is 219 nM; in assay [2] it was more than 10000 nM; in assay [3], approximately 3800 nM; in assay [4], 6170 nM. Also, in assay [5], the pIC50 is 6.11.
